# Counter-ions that a name gives are not always drawn. Marks after values point to notes of the source that are not given here.
# What was measured:
# [1] = Accelerated aging conditions (AAC), solid form remeasured by XRPD; type: physicochemical; conditions: 3 days at 40° C. and 75% RH
# Procedure: All solids were exposed to AAC (40° C./75% RH for 3 days) and remeasured by HT-XRPD. After that, 750 μl of a selected solvent was added. The vials were transferred to a Crystal16™ parallel crystallizer and the suspensions were stirred at 750 rpm at 50° C. for 18h after which the suspensions were subjected to centrifugation and the solids were isolated, dried under vacuum (50° C., 5 mbar, 18 h) and analyzed by HT-XRPD. The experimental conditions and results are shown below in Table 1 and Table 2 for the first and second set of experiments, respectively. The obtained XRPD patterns for the crystallinesalts made are shown in FIGS. 1 (HCl), 2 (Mao) and 3 (Mes).
# Experimental conditions and results of the hydrochloride and malonic acid salt crystallization experiments. In all experiments, 750 μl of solvent was used. Counterion (Cl) abbreviations denote pure counterions whereas counterions with a number denote novel salt forms. After subjecting suspensions of API:Cl to thermocycles, the solids were isolated, dried (5 mbar, 50° C., 18 h) and analyzed by XRPD. The liquid phases were dried, and the resulting solids were analyzed by XRPD. Most solids were subjected to AAC (40° C., 75% RH, 3 days) and remeasured by XRPD.
# [2] = Pharmacokinetic characterization after i.v. and p.o. administration to male CD-1 mice; type: in vivo; conditions: for CL as % of mouse liver blood flow: liver blood flow 120 ml/min/kg
# Procedure: IV formulations were prepared on the day of dosing. The formulations were prepared by weighing the compound into brown glass vial; on the day of dosing ClinOleic 20% intravenous fat emulsion ([…], Tamro) was added into tubes (1,5 mg/mL in 20% ClinOleic). Formulations were homogenized 5 minutes before dosing. IV formulations were administered within 5 hours after preparation.
# PO formulations were prepared day before administration. The formulations were prepared by formulating the test items in PO vehicle (6 mg/ml in 0.45% (v/v) Tween 80-0.11% (w/v) sodium carboxy methylcellulose (CMC) in tap water). The suspensions were mixed with vortex and stored refrigerated (+4° C.) over night. On the day of dosing formulations were homogenized 15 minutes before dosing.
# Naïve animals were used in the study (see Table 6). They were housed in individually ventilated (IVC)-cages in groups of six mice. The cages were provided with aspen bedding (4HP and PM90L, Tapvei, Estonia) and paper strands (Sizzlenest, Datesand, UK) as nesting material, and a paper pulp cabin and red polycarbonate cylinder (Datesand, UK) as cage enrichment. The temperature (22±2° C.), humidity (55±10%) and air exchange rate (75 times/h) of the IVC-cages and 12/12-h light/dark cycle (500 lux lighting on at 6 a.m., 1.5 lux lighting […].) of the animal holding room were automatically controlled and maintained. Animals were allowed to acclimatize to the site for at least five days prior to the study. Animals had ad libitum access to food (SDS diets, RM1 (E) 801002, Special Diets Services, UK) and tap water at all times, and their welfare was assured with daily observations.
# Study compounds were administered via the specified route and the times of dosing and blood sampling were recorded. Within 30 min following the sampling, the blood was centrifuged for plasma separation (room temperature; 10 min; 2700 G). The plasma samples were transferred into plastic tubes, frozen and stored at −20° C. until analysis. Clinical signs and general behavior of the animals were recorded, when necessary.
# The pharmacokinetic parameters were calculated using Phoenix 64 (Build 6.4.0.768) WinNonlin (version 6.4) software, using non-compartmental methods (NCA). Nominal doses were used for all animals. The terminal phase half-life (T1/2) was calculated by least-squares regression analysis of the terminal linear part of the log concentration—time curve. The area under the plasma concentration—time curve (AUC) was determined with the linear trapezoidal rule for increasing values and log trapezoidal rule for decreasing values up to the last measurable concentration (AUC0-last), and extrapolation of the terminal elimination phase to infinity was used when possible; the following criteria were used:
# Minimum of 3 points (not including Cmax) used to calculate lambda (with R^2 adjusted >0.85)
# T1/2 shorter than the time-span used to calculate lambda
# The maximum plasma concentration (Cmax) and the time to reach Cmax (tmax) were derived directly from the plasma concentration data.
# [3] = Qualitative solubility determination in water at room temperature (visual, water added until dissolved); type: physicochemical; conditions: for Solubility in water: RT, estimated by adding water to the salt until dissolved; for Dissolution in water (in words): room temperature
# Procedure: The solubility of the salts in water at RT was estimated by adding water to the salt until the salt dissolved. […] From the TGMS data it was estimated whether the salts are stochiometric hydrates or not.
# The solubility of a selection of salts from the salt screen was estimated at room temperature in water. To approximately 2 mg of salt, solvent aliquots were added in steps of 50 μl until the material was dissolved as observed visually by the naked eye.
# [4] = Quantitative (thermodynamic) solubility determination, shake-flask, LCMS against calibration line; type: physicochemical; conditions: for Solubility in water: room temperature, suspensions stirred for 18 h, LCMS; for solubility at 4 h: 25 °C, thermodynamic from solid
# Procedure: The thermodynamic solubility of Rabeximod free base (Form 1) was determined in 3 different USP buffers (50 mM) ranging from pH 1.2 to pH 7.4 and in water (Exp. ID: QSA21-24) by the shake-flask method at 25° C. (
# Table ). Approximately 30 mg was added to approximately 1 ml of the selected buffer and the resulting suspension was equilibrated at RT for 4 hours under continuous stirring. After 15 min and after 4 h of stirring, the pH of the solution was recorded. Upon completion of the equilibration time, the suspensions were centrifuged. The solution was filtered and diluted before LCMS analysis to determine the API concentration in solution. The residue was dried under vacuum and the obtained dried solids were analyzed by XRPD. A standard LC calibration curve was prepared, and the diluted mother liquors were measured to determine the API concentration.
# The solubility of the freebase (Form 1) and salts prepared by scale-up was determined in water at room temperature. Suspensions were stirred for 18 h after which the liquid phase was isolated and measured by LCMS against a calibration line. The solids were dried and measured by XRPD to determine the solid form. The lowest solubility was determined for the freebase (Form 1). The signal was lower than the calibration line and therefore the solubility was determined to be <0.005 mg/ml. […] The experimental details are described in table 5.
# Table 5. Experimental details and results of the solubility determination for Rabeximod free base Form 1) as well as salt Mes1 in water and in 3 buffers with pH range 1.2-7.4. The pH of the solutions after 15 minutes and 4 hours are reported. The solubility was determined after 4h equilibration by measuring the liquid phase with LCMS against a calibration line.
# [5] = Dynamic vapor sorption (hygroscopicity / moisture sorption); type: physicochemical
# Procedure: Differences in hygroscopicity (moisture uptake) of the various forms of a solid material provided a measure of their relative stability at increasing relative humidity. Moisture sorption isotherms of small samples were obtained using a DVS-1 system from Surface Measurement Systems (London, UK); this instrument is suitable for use with a few milligrams of sample, with an accuracy of 0.1 μg. The relative humidity was varied during sorption-desorption-sorption (40-95-0-40% RH) at a constant temperature of 25° C. Weight equilibration per step was set at dm/dt <0.0002 mg/min for a minimum of 1 hour or maximum of 6 hours. Afterwards the sample was measured by HT-XRPD.
# The hygroscopicity was classified according to the European Pharmacopoeia Hygroscopicity classification. Water uptake percentage at 25° C./80%RH (24h) is:
# Change in mass <0.2%—Non-hygroscopic
# Change in mass >2% & <15%—Moderately hygroscopic
# Change in mass >15%—Very hygroscopic
# [6] = i.v., 3.00 mg/kg, male CD1 mice
# [7] = p.o., 30.0 mg/kg, male CD1 mice
# [8] = male, CD-1, mouse, plasma, po, 30 mg/kg, male CD1 mice
# [9] = male, CD-1, mouse, plasma, iv, 3 mg/kg, male CD1 mice
SMILES,Salt form after AAC [1],"AUC0-inf [2, 6] [ng·h/mL]","T1/2 [2, 6] [h]","Time of peak plasma concentration (tmax) [2, 6] [h]","Vss [2, 6] [L/kg]","clearance [2, 6] [mL/min/kg]","mean C0 [2, 6] [ng/mL]","mean Cmax [2, 6] [ng/mL]","CL as % of mouse liver blood flow ([2]; i.v., 3.00 mg/kg) [%]","AUC0-last [2, 7]","Time of peak plasma concentration (tmax) [2, 7] [h]","mean Cmax [2, 7] [ng/mL]",Solubility in water [3] [µg/mL],further results
Cc1cc2nc3c4cc(Cl)ccc4n(CC(=O)NCCN(C)C)c3nc2cc1C [Rabeximod HCl],HCl,2220,8.43,0.0833,14.2,22.6,600,454,18.8,13 700 h*ng/ml,4.00,893,2000 to 5700,"Solubility ([4]; medium water, listed as HCI (TCS160)): 5.45 mg/mL; Solubility in water ([4]; listed as HCl1): 5500 µg/mL"
Cc1cc2nc3c4cc(Cl)ccc4n(CC(=O)NCCN(C)C)c3nc2cc1C [Rabeximod Mao],Mao,1870,8.43,0.0833,16.9,26.8,390,355,22.3,11 400 h*ng/ml,0.17,1140,5500 to 10200,"Solubility ([4]; medium water, listed as Mao (TCS161)): 5.26 mg/mL; Solubility in water ([4]; listed as Mao1): 5300 µg/mL"
Cc1cc2nc3c4cc(Cl)ccc4n(CC(=O)NCCN(C)C)c3nc2cc1C [Rabeximod Mes],Mes,2320,9.80,0.0833,15.9,21.5,507,383,17.9,11 600 h*ng/ml,2.00,707,13300,"Water uptake ([5]; DVS, 25° C.): 12.2%; Form after DVS ([5]; sorption-desorption-sorption 40-95-0-40% RH, 25° C., HT-XRPD): Mes1; half-life [2, 8]: 8.93 h; Solubility ([4]; medium HCl, pH buffer 1.2, 4 h equilibration, listed as Mes (TCS35)): 0.014 mg/mL; Solubility ([4]; medium phosphate buffer, pH buffer 6.5, 4 h equilibration, listed as Mes (TCS35)): 0.042 mg/mL; Solubility ([4]; medium water, listed as Mes (TCS35)): 13.26 mg/mL; solubility at 4 h ([4]; phosphate buffer, pH 7.4, aqueous buffer, medium phosphate buffer, pH buffer 7.4, 4 h equilibration): 3 µg/mL; Solubility in water ([4]; listed as Mes1): 13300 µg/mL"
"Cc1cc2nc3c4cc(Cl)ccc4n(CC(=O)NCCN(C)C)c3nc2cc1C [Rabeximod, 9-Chloro-2,3-dimethyl-6-(N,N-dimethylaminoethylamino-2-oxoethyl)-6H-indolo-[2,3-b]quinoxaline]",,681,,,49.4,73.4,,150,61.2,,4.00,,,"Physical stability upon exposure to relative humidity ([5]; relative humidity values between 0-95%): remained physically stable; Hygroscopicity classification (European Pharmacopoeia) ([5]; water uptake at 25° C./80%RH): slightly hygroscopic; Tmax ([2]; male, CD-1, mouse, plasma, iv, 3 mg/kg, i.v., 3.00 mg/kg, male CD1 mice, read-out: Time of peak plasma concentration (tmax)): 5 min; C0 [2, 9]: 351 ng/mL; half-life [2, 9]: 8.99 h; AUC(0-t) [2, 8]: 8330 ng·h/mL; Cmax [2, 8]: 728 ng/mL; Dissolution in water (in words) [3]: close to insoluble in water; Dissolution in water (in words) ([3]; listed as freebase): no sign of dissolution; solubility at 4 h ([4]; HCl buffer, pH 1.2, simulated gastric fluid, medium HCl, pH buffer 1.2, 4 h equilibration): 13 µg/mL; Solubility ([4]; medium phosphate buffer, pH buffer 6.5, 4 h equilibration, listed as Form 1 (SM)): 0.005* mg/ml; Solubility ([4]; medium phosphate buffer, pH buffer 7.4, 4 h equilibration, listed as Form 1 (SM)): <LOD; Solubility ([4]; medium water, listed as Form 1 (SM)): <0.005 mg/mL; Solubility in water ([4]; listed as freebase): < 5 µg/mL"
